Data: patent publication US9339543B2, “Pharmaceutical compositions that inhibit disproportionation” (Merck Sharp & Dohme Corp., priority 2011, dated 2016)

What was measured:
[1] = XRPD of stressed pioglitazone HCl binary/acidified compacts (free base formation); assay type: physicochemical; conditions: for Inhibition of disproportionation via acidification (Table 6 and FIGS. 2 and 3): organic acid in a 1:1 weight ratio with the carboxylate excipient, NIR and XRPD; for Inhibition of disproportionation by organic acid (XRPD, FIG. 2): pioglitazone HCl compacts containing MgSt with organic acids, 40° C./75% RH open dish
Description: (§1) An understanding of pioglitazone HCl salt disproportionation was obtained by studying each excipient individually. All of the API and excipient powders were gravimetrically dispensed into 1-dram glass vials using the Symyx Powdernium powder dispensing robot. Binary mixtures containing 250 mg of pioglitazone HCl salt and approximately 30 mg of the excipients were dispensed to create a 9:1 weight ratio mixture. Pharmaceutically relevant formulation matrix samples, or pseudo formulations, were also prepared. The compact target weight was 280 mg with a final composition of 45% of pioglitazone HCl salt, 25% avicel, 25% mannitol and 5% of the remaining excipients.
(§2) Upon completion of the powder dispensing, the vials were removed from the robot and mixed using a Resodyn Acoustic Mixer (LabRAM). The powders were mixed for 30 seconds at 30% intensity to produce homogeneous mixtures. The powders were then poured from the DRAM vial into a ½ inch die. A single compact from each DRAM vial was manually compressed using a compression force of 2000-3000 lbs and a dwell time of 5 seconds. Compacts were stressed at 40° C./35% RH and 40° C./75% RH. The sample preparation and reference for each compact can be seen in Table 2.
XRPD spectroscopy was also used to quantify the level of disproportionation in selected stressed samples of pioglitazone HCl. XRPD Spectroscopy is more sensitive to free base than NIR, making it suitable for samples with little or no disproportionation. The XRPD spectra were collected on the Panalytical X'pert Pro diffractometer with Cu Ka1 radition of 1.5406 Å in the transmission mode. The samples were scanned between a two theta range of 4 and 20° at a step size of 0.0167° for one hour at ambient conditions. The tube power used was 45 kV and 40 mA. In the XRPD pattern, the pioglitazone crystalline free base form has four specific peaks at 7.8weak, 9.1strong, 10.3strong and 15.1moderate 2-theta. The pioglitazone HCl form has a doublet peak centered at 8.6 2-theta.

[2] = cited from earlier work
[3] = aqueous; cited from earlier work
[4] = FT-NIR monitoring of loss of HCl salt in stressed pioglitazone HCl binary/acidified compacts; assay type: physicochemical; conditions: MgSt and organic acid compacts, 40° C./75% RH open dish
Description: as §1, §2
FT-NIR reflectance spectroscopy was used to monitor the loss of HCl salt throughout the binary and pseudo formulation studies. […]

Compound	Inhibition of disproportionation via acidification (Table 6 and FIGS. 2 and 3) [1]	Inhibition of disproportionation by organic acid (XRPD, FIG. 2) [1]	pKa Values (first value) [2]	Aq. Sol. [3] [g/mL]	Inhibition of disproportionation by organic acid (NIR, Table 6) [4]	pKa Values (second value) [2]	pKa Values (third value) ([2]; third pKa printed in cell)
O=C(O)/C=C/C(=O)O [Fumaric Acid]	not effective in inhibiting disproportionation	do not effectively inhibit disproportionation	3.0	0.0063			
O=C(O)/C=C\C(=O)O [Maleic Acid]	completely inhibited	successfully inhibit disproportionation		0.78	could inhibit disproportionation	6.3	
O=C(O)C(=O)O [Oxalic Acid]	not effective in inhibiting disproportionation	do not effectively inhibit disproportionation	1.25	0.14		4.14	
O=C(O)C(O)C(O)C(=O)O (stereo not shown) [Tartaric Acid]	completely inhibited	successfully inhibit disproportionation	3.0	1.3	could inhibit disproportionation	4.2	
Citric Acid	not effective in inhibiting disproportionation	do not effectively inhibit disproportionation	3.2			4.8	6.4
